Tests used:
[1] = test system: Human non-small cell lung cancer NCI-H460 cells; assay: Inhibitory effect on growth of PTX-resistant tumor cell line, parent line (in vitro); format: cell-based; conditions: 96 hours culture, WST-8
Experimental: Each compound of the present invention was studied for its effect on the growth of a tumor cell line having a PTX resistance mechanism different from that attributed to the high expression of P-glycoprotein. Human non-small cell lung cancer NCI-H460 cells were exposed to 1 nM paclitaxel (PTX) and 10 μM verapamil at the same time. Only the PTX concentration was increased to 2, 3, 4, 5, and 7 nM in order over approximately 6 months to establish PTX-resistant H460/PV2-7 cells (PV2-7). […] As for the PTX resistance mechanism different from that attributed to the high expression of P-glycoprotein, an isotype called Class III β-tubulin (TUBB3), which is one isotype of […], has been reported to be highly expressed in PTX-resistant established lines in vitro or in clinical samples from patients having resistance to PTX therapy.
The PV2-7 cells and the parent line NCI-H460 cells were suspended in a medium and inoculated at a cell density of 1000 cells/50 μL/well to a 96-well plate. After overnight culture, each compound diluted 2-fold (final concentration) was added thereto at a concentration of 50 μL/well, and the cells were cultured for 96 hours. After the completion of culture, WST-8 (Seikagaku Corp.) was added thereto at a concentration of 10 μL/well, and the cells were cultured at 37° C. for approximately 1 hour under 5% CO2 conditions, followed by measurement of absorbance at 450 nm.

[2] = test system: human colorectal cancer HCT116 cells; assay: Inhibitory effect on growth of human cancer cells (in vitro), WST-8; format: cell-based; conditions: Homo sapiens, HCT-116, 96 h, 96 hours culture
How it was run: (§1)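 Cells seeded at 1000 cells/well in RPMI1640 with 10% FBS, compounds added after overnight culture, then 96 h exposure. Viability by WST-8, about 1 h at 37 °C, 5% CO2, absorbance read at 450 nm.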

[3] = test system: human colorectal cancer HT-29 cells; assay: as above; format: cell-based; conditions: Homo sapiens, HT-29, 96 h, 96 hours culture, read-out: IC50 (nM) HT29
How it was run: as §1

[4] = test system: human non-small cell lung cancer A549 cells; assay: as above; format: cell-based; conditions: Homo sapiens, A549, 96 h, 96 hours culture
How it was run: as §1

[5] = test system: Human uterus cancer MES-SA cells; assay: Inhibitory effect on growth of multidrug-resistant cell line, parent line (in vitro); format: cell-based; conditions: 48 hours culture, WST-8
Source text: (§2) Each compound of the present invention was studied for its effect on the growth of a multidrug-resistant cell line. A drug efflux pump called P-glycoprotein is well known to be involved in the drug resistance mechanism of the multidrug-resistant line MES-SA/Dx5 used in this experiment. Accordingly, in this experiment, paclitaxel and vincristine, which are proven substrates of P-glycoprotein, were used as control drugs. Human uterus cancer MES-SA cells and their multidrug-resistant line MES-SA/Dx5 cells were suspended in a medium and inoculated at a cell density of 2000 cells/50 μL/well to a 96-well plate. After overnight culture, each test sample diluted with a medium was added thereto at a concentration of 50 μL/well, and the cells were further cultured for 48 hours. After the completion of culture, WST-8 was added thereto at a concentration of 10 μL/well, and the cells were cultured at 37° C. for approximately 1 hour under 5% CO2 conditions, followed by measurement of absorbance at a wavelength of 450 nm. […] The resistance rate was calculated according to the following expression:
(§3) Resistance rate=IC50 value (MES-SA/Dx5)/IC50 value (MES-SA)

[6] = test system: multidrug-resistant line MES-SA/Dx5 cells; assay: Inhibitory effect on growth of multidrug-resistant cell line (in vitro); format: cell-based, human; conditions: for IC50: Homo sapiens, MES-SA/Dx5 cells, 48 hours culture, WST-8; for Resistance rate: IC50 value (MES-SA/Dx5)/IC50 value (MES-SA)
Source text: as §2, §3

[7] = test system: human lung cancer NCI-H460 xenograft tumor; assay: Antitumor effect on growth of human lung cancer NCI-H460 xenograft tumor (in vivo); design: species or system BALB/c nude mice; conditions: Mus musculus, NCI-H460, iv, 528 h, tail vein, excised tumor weight Day 22, read-out: Inhibition Rate (%)
Experimental: Each compound of the present invention was studied for its in vivo antitumor effect using human lung cancer NCI-H460 cell-transplanted mice. An NCI-H460 cell suspension containing 2×10^6 cells was subcutaneously transplanted in an amount of 0.1 mL/mouse to the left groin areas of 6-week-old male BALB/c nude mice. The mice were further raised for approximately 1 week to 10 days and divided into groups (4 mice per group) having equal estimated tumor volumes at the point in time when the tumor size reached approximately 100 to 200 mm^3 (Day 1). Each administration sample was administered at a dose of 10 mL/kg into the tail vein of the mice. The dose and administration schedule of each compound were as described in Table 3. At Day 22, tumor was excised from each mouse. The tumor growth inhibition rate (IR: Inhibition Rate) was calculated from the weight of the excised tumor according to the expression shown below. The Dunnett's test was used in the significant difference test.
Tumor growth inhibition rate (Inhibition Rate, %)=(1−(Excised tumor weight of the administration group)/(Excised tumor weight of the control group))×100

[8] = Days 1, 3, 5, 8, 10, 12, 15, 17, 19

Compound | IC50 [1] [nM] | IC50 [2] [nM] | IC50 [3] [nM] | IC50 [4] [nM] | IC50 [5] [nM] | IC50 [6] [nM] | Resistance rate [6] | further results
CO[C@H]1C(=O)[C@]2(C)[C@@H](OC)C[C@H]3OC[C@@]3(OC(C)=O)[C@H]2[C@H](OC(=O)c2ccccc2)[C@]2(O)C[C@H](OC(=O)[C@H](O)[C@@H](NC(=O)OC(C)(C)C)c3ccccc3)C(C)=C1C2(C)C [Cabazitaxel, cabazitaxel] | 1.3 |  |  |  |  |  |  | 
Cc1[nH]c(-c2nnn(CCO)n2)c(C)c1C(=O)c1cccc(Br)c1 [Compound 102, (3-bromophenyl)(5-(2-(2-hydroxyethyl)-2H-tetrazol-5-yl)-2,4-dimethyl-1H-pyrrol-3-yl)methanone] |  | 9.5 | 8.7 | 19.3 | 3.8 | 4.3 | 1.1 | inhibition in vivo at 12.5 mg/kg [7, 8]: 43.4%; inhibition in vivo at 25 mg/kg ([7]; 25 mg/kg, Days 1, 3, 5, 8, 10, 12, 15, 17, 19): 61.1%; inhibition in vivo at 37.5 mg/kg ([7]; 37.5 mg/kg, Days 1, 3, 5, 8, 10, 12, 15, 17, 19): 80.5%; inhibition in vivo at 40 mg/kg ([7]; 40 mg/kg, Days 1, 5, 9): 96.5%
COc1ccc(C(=O)c2c(C)[nH]c(-c3nnn(CCO)n3)c2C)cc1Br [Compound 110, (3-bromo-4-methoxyphenyl)(5-(2-(2-hydroxyethyl)-2H-tetrazol-5-yl)-2,4-dimethyl-1H-pyrrol-3-yl)methanone] |  | 14.2 | 8.2 | 39.3 | 5.5 | 22.7 | 4.2 | inhibition in vivo at 12.5 mg/kg [7, 8]: 55.8%; inhibition in vivo at 18.75 mg/kg ([7]; 18.75 mg/kg, Days 1, 3, 5, 8, 10, 12, 15, 17, 19): 77.4%
Cc1c(-c2nnn(CCO)n2)[nH]c(CO)c1C(=O)c1cccc(Br)c1 [Compound 121, (3-bromophenyl)(5-(2-(2-hydroxyethyl)-2H-tetrazol-5-yl)-2-(hydroxymethyl)-4-methyl-1H-pyrrol-3-yl)methanone] | 76.2 | 43.5 | 43.8 | 122 | 49.8 | 88.4 | 1.8 | inhibition in vivo at 60 mg/kg ([7]; 60 mg/kg, Days 1, 3, 5, 8, 10, 12, 15, 17, 19): 60.6%; inhibition in vivo at 120 mg/kg ([7]; 120 mg/kg, Days 1, 8, 15): 75.5%
Cc1c(-c2nnn(CCO)n2)[nH]c(C(C)O)c1C(=O)c1cccc(Br)c1 (centres unmarked) [Compound 123, (3-bromophenyl)(2-(1-hydroxyethyl)-5-(2-(2-hydroxyethyl)-2H-tetrazol-5-yl)-4-methyl-1H-pyrrol-3-yl)methanone] | 68.8 | 46.1 | 39.5 | 326 | 63.3 | 135 | 2.1 | inhibition in vivo at 50 mg/kg ([7]; 50 mg/kg, Days 1, 3, 5, 8, 10, 12, 15, 17, 19): 58.2%; inhibition in vivo at 100 mg/kg ([7]; 100 mg/kg, Days 1, 5, 9): 56.5%
CNC(=O)c1[nH]c(-c2nnn(CCO)n2)c(C)c1C(=O)c1cccc(Br)c1 [Compound 142, 3-(3-bromobenzoyl)-5-(2-(2-hydroxyethyl)-2H-tetrazol-5-yl)-N,4-dimethyl-1H-pyrrole-2-carboxamide] | 374 | 194 | 176 | 257 | 238 | 656 | 2.8 | inhibition in vivo at 140 mg/kg ([7]; 140 mg/kg, Days 1, 8, 15): 73.8%
COc1ccc(C(=O)c2c(C)[nH]c(-c3nnc(C4CC4)o3)c2C)cc1Br [Compound 198, (3-bromo-4-methoxyphenyl) (5-(5-cyclopropyl-1,3,4-oxadiazol-2-yl)-2,4-dimethyl-1H-pyrrol-3-yl)methanone] |  | 0.9 | 0.3 | 1.8 | 0.21 | 0.28 | 1.3 | inhibition in vivo at 10 mg/kg ([7]; 10 mg/kg, Days 1, 3, 8, 10, 12, 15, 17, 19): 51.6%
COc1ccc(C(=O)c2c(CO)[nH]c(-c3nnc(C4CC4)o3)c2C)cc1Br [Compound 266, (3-bromo-4-methoxyphenyl)(5-(5-cyclopropyl-1,3,4-oxadiazol-2-yl)-2-(hydroxymethyl)-4-methyl-1H-pyrrol-3-yl)methanone] |  | 1.6 | 2.7 | 4.7 |  |  |  | inhibition in vivo at 20 mg/kg [7, 8]: 39.4%
COc1ccc(C(=O)c2c(C(F)F)[nH]c(-c3nnc(C4CC4)o3)c2C)cc1Br [Compound 267, (3-bromo-4-methoxyphenyl) (5-(5-cyclopropyl-1,3,4-oxadiazol-2-yl)-2-(difluoromethyl)-4-methyl-1H-pyrrol-3-yl)methanone] |  | 39 | 10.7 | 13 |  |  |  | inhibition in vivo at 20 mg/kg [7, 8]: 35.6%
COc1ccc(C(=O)c2c(C(C)O)[nH]c(-c3nnc(C4CC4)o3)c2C)cc1Br (centres unmarked) [Compound 268, (3-bromo-4-methoxyphenyl)(5-(5-cyclopropyl-1,3,4-oxadiazol-2-yl)-2-(1-hydroxyethyl)-4-methyl-1H-pyrrol-3-yl)methanone] |  | 2.5 | 5.2 | 4.1 |  |  |  | inhibition in vivo at 20 mg/kg [7, 8]: 41.2%
CC(=O)O[C@@]12CO[C@@H]1C[C@H](O)[C@@]1(C)C(=O)[C@H](O)C3=C(C)[C@@H](OC(=O)[C@H](O)[C@@H](NC(=O)OC(C)(C)C)c4ccccc4)C[C@@](O)([C@@H](OC(=O)c4ccccc4)[C@H]21)C3(C)C [Docetaxel, docetaxel] | 1.5 |  |  |  |  |  |  | 
CC[C@]1(O)C[C@H]2CN(CCc3c([nH]c4ccccc34)[C@@](C(=O)OC)(c3cc4c(cc3OC)N(C=O)[C@H]3[C@@](O)(C(=O)OC)[C@H](OC(C)=O)[C@]5(CC)C=CCN6CC[C@]43[C@@H]65)C2)C1 [Vincristine, vincristine, reference compound] |  |  |  |  | 36.2 | 2440 | 67.5 | 

— US20140343017A1, “PYRROLE COMPOUND” (Kabushiki Kaisha Yakult Honsha, priority 2012, published 2014)
